Test results from PMC10257182, “Discovery of senolytics using machine learning” (Nature Communications, 2023).
“And” between values parts separate entries of the source, which are not always exact repeats. Equal values may be shown once.

Experiments:
Format in all cases: cell-based, human
control A549 cells [1] = assay: Cell survival assay using crystal violet staining, TIS, control cells; settings: for % Cell Survival: Control (no etoposide) cells, Control DMSO = 100, single replicates (SUP FIG 9E)
Protocol: Equal numbers of control and senescent cells were plated at high density on multiwell plates just before senolytic treatment addition. After treatment, cells were fixed on 0.5% glutaraldehyde (Sigma) and then dried at RT overnight. Then, wells were stained with crystal violet solution for 3 h, washed and dried. Once they were completely dry, the plates were scanned for records. Quantification was performed extracting the staining with 1% acetic acid and measuring the final solution by absorbance at 595 nm. […]
cells per condition is indicated. (d) Cell survival assay measuring the senolytic effect in lung cancer senescent cells. The panels show a representative crystal violet staining of tissue culture dishes of confluent A549 cells treated with 100 μM etoposide and control A549 cells, all treated with 10 nM oleandrin, ouabain and periplocin, and DMSO as vehicle control for 72 hours as indicated. (e) Graph representing the cell survival by quantification of the crystal violet staining of the experiment described in (d), as described in Methods. Data represented as individual datapoints, and bars and error bars representing the mean ± SEM of 14 independent experiments. Statistical analysis was performed using a one-way ANOVA (Tukey’s test) for multiple comparisons. […]
Scale bars represent 100 μm. ns = not significant, * = p < 0.05, ** = p < 0.01, *** = p < 0.001, **** = p < 0.0001. Source data are provided as a Source Data file.

[2] = test system: IMR90 cells at passage 13 (control); settings: for Mean (cell survival, Tukey test details): FIG 4C, Young (control) cells, mean of n=12 as fraction of Young DMSO = 1
From the text: IMR90 (CCL-186) human foetal lung fibroblasts and A549 (CCL-185) human lung adenocarcinoma cells were obtained from the American Type Culture Collection (ATCC, Manassas, VA). The cell lines were confirmed to be mycoplasma negative (Lonza MycoAlert, cat #LT07-118). IMR90 ER:RAS is a derivative of IMR90 cells expressing a switchable version of oncogenic H-Ras[84]. IMR90 ER:RAS and A549 cells were maintained in Dulbecco’s Modified Eagle Medium (DMEM, ThermoFisher) supplemented with foetal bovine serum (10%), L-glutamine (2 mM, ThermoFisher), and antibiotic-antimycotic solution (1%, ThermoFisher) and incubated under standard tissue culture conditions (37 °C and 5% CO2). For induction of the senescent phenotype, IMR90-ER:RAS cells were cultured in hydroxytamoxifen (4-OHT) (Sigma) added media at 100 nM final concentration. IMR90 were kept in culture for over 27 passages for replicative senescence. Cells were tested for mycoplasma on a regular basis.
Equal numbers of control and senescent cells were plated at high density on multiwell plates just before senolytic treatment addition. After treatment, cells were fixed on 0.5% glutaraldehyde (Sigma) and then dried at RT overnight. Then, wells were stained with crystal violet solution for 3 h, washed and dried. Once they were completely dry, the plates were scanned for records. Quantification was performed extracting the staining with 1% acetic acid and measuring the final solution by absorbance at 595 nm.

[3] = test system: IL1α, IL1β and IL8 mRNA in IMR90 cells at passage 27; assay: IL1α, IL1β and IL8 mRNA expression by RT-qPCR, replicative senescence; settings: Replicative senescence cells treated with Oleandrin; relative to Replicative senescence DMSO = 1; individual replicates (Sup Fig 9M)
Protocol: (§1) Total RNA was isolated using RNAeasy kit (Quiagen). cDNA was generated with reverse transcriptase iScript (Bio-Rad). RT-qPCR was performed using SYBR Select Master Mix (Applied Biosystems) in OneStepPlus detection system (Applied Biosystems). Oligos for amplification were: NOXA Fw-[…] and Rv-[…]; b-ACTIN Fw-[…] and Rv-[…]; IL1a Fw-[…] and Rv- […]; IL1b Fw-[…] and Rv- […]; IL8 Fw-[…] and Rv-[…]; p16 Fw-CGGTCGGAGGCCGATCCAG and Rv- […]; p21Fw-[…] and Rv- […].

[4] = test system: p16 and p21 mRNA in IMR90 cells at passage 27; assay: p16 and p21 mRNA expression by RT-qPCR, replicative senescence
Protocol: as §1

[5] = test system: p16 and p21 mRNA in IMR90 ER:RAS cells; assay: p16 and p21 mRNA expression by RT-qPCR, OIS
Protocol: as §1

[6] = test system: IL1α, IL1β and IL8 mRNA in IMR90 ER:RAS cells; assay: IL1α, IL1β and IL8 mRNA expression by RT-qPCR, OIS
Protocol: as §1

control A549 cells [7] = assay: Cell survival assay using crystal violet staining, TIS, control cells; settings: fraction of Control DMSO = 1, n 15
[8] = Replicative senescence, Replicative senescence DMSO = 1, single replicates (SUP FIG 9K)
[9] = ER:RAS cells, ER:RAS DMSO = 1, single replicates (SUP FIG 9J)
[10] = ER:RAS cells treated with Oleandrin, relative to ER:RAS DMSO = 1, individual replicates (Sup Fig 9L)

Structure (SMILES) | % Cell Survival (control A549 cells [1]) | Mean (cell survival, Tukey test details) [2] | Il1a mRNA expression [3] | Il1b mRNA expression [3] | Il8 mRNA expression [3] | p16 mRNA expression [4, 8] | p21 mRNA expression [4, 8] | mRNA expression of the senescence markers p16 and p21 in surviving cells, in words ([4]; replicative senescence, 10 nM, three days) | p16 mRNA expression [5, 9] | p21 mRNA expression [5, 9] | mRNA expression of the senescence markers p16 and p21 in surviving cells, in words ([5]; OIS, 10 nM, three days) | cellular density in non-senescent control cultures, in words (control A549 cells [1]; A549 control, 10 nM, 72 h) | cellular density in non-senescent control cultures, in words ([2]; IMR90 control, 10 nM, 72 h) | Il1a mRNA expression [6, 10] | Il1b mRNA expression [6, 10] | Il8 mRNA expression [6, 10] | expression of proinflammatory cytokines IL1α, IL1β and IL8 mRNA in surviving cells, in words ([6]; OIS, 10 nM, three days) | Cell survival, mean (Test details, Mean 2) (control A549 cells [7])
C[C@@H]1O[C@@H](O[C@H]2C[C@@H](O)[C@]3(CO)[C@H]4[C@H](O)C[C@]5(C)[C@@H](C6=CC(=O)OC6)CC[C@]5(O)[C@@H]4CC[C@]3(O)C2)[C@H](O)[C@H](O)[C@H]1O [Ouabain, ouabain, reference compound] | 87.7% and 109.8% and 97.7% and 103.7% and 127.7% and 98.4% and 119.9% and 122.1% and 126.3% and 124.6% and 125% and 96.4% | – | – | – | – | – | – | – | – | – | – | – | – | – | – | – | – | –
CO[C@H]1C[C@H](O[C@H]2CC[C@]3(C)[C@H]4CC[C@]5(C)[C@@H](C6=CC(=O)OC6)CC[C@]5(O)[C@@H]4CC[C@]3(O)C2)O[C@H](C)[C@H]1O[C@@H]1O[C@H](CO)[C@@H](O)[C@H](O)[C@H]1O [Periplocin, periplocin] | 90% and 112.2% and 107.2% and 111% and 106.6% and 104.9% and 102.9% and 93.8% and 98.6% and 110.6% and 109.7% and 108.4% and 94.2% and 93.9% | 0.8921 | – | – | – | – | – | – | – | – | – | – | – | – | – | – | – | –
CO[C@H]1C[C@H](O[C@H]2CC[C@@]3(C)[C@H](CC[C@@H]4[C@@H]3CC[C@]3(C)[C@@H](C5=CC(=O)OC5)[C@@H](OC(C)=O)C[C@]43O)C2)O[C@@H](C)[C@@H]1O [Oleandrin, oleandrin] | 99.6% and 145% and 133.8% and 119.3% and 135.9% and 111.6% and 113.5% and 93% and 97.3% and 116% and 109.5% and 116.3% and 95.4% and 109% | 0.8637 | 0.137 and 0.086 | 0.212 and 0.341 and 0.688 and 0.490 | 0.310 and 0.732 and 0.719 | 0.71 and 0.46 and 0.42 | 0.65 and 0.25 and 0.44 | reduced | 0.68 and 0.69 and 0.24 and 0.46 | 0.34 and 0.51 and 0.72 and 0.48 | reduced | unchanged | unchanged | 0.753 and 0.593 and 0.059 and 0.346 | 0.833 and 0.618 and 0.476 and 0.758 and 0.763 and 0.829 | 0.635 and 0.462 and 0.310 and 0.125 and 0.299 | reduced expression | 1.13
